One data set has as its system mouse liver MOSs. As to the kind of experiment: Toxicity assay using mouse liver MOSs. Particulars: 10 mM. The data set is classed as cell-based.
A further data set concerns human liver MOSs. As to the kind of experiment: Toxicity assay using human liver MOSs. The data set is classed as cell-based. The conditions noted are these: 10 mM. From the text:
Similarly, FIGS. 34A-34B also show toxicity assays using human liver MOSs.

In data set [1] the test system is tumor. Briefly: Patient response to standard of care drugs (Example 3). The data set is classed as in vivo, human. The conditions noted are these: patient treated with both Oxalipalatin and Irinotecan, after 6 months of treatment. On the procedure: (§1) In a similar set of experiments, MOSs were generated from biopsy material (FIG. 23A), and a drug effect screen was performed using the resulting MOSs. […] Thus, the MOSs correlated strongly with patient response to the standard of care drugs. In this case, the patient endured six months of side effects and toxicities that may have been avoided by the predicted response from the MOSs, indicating (within 7-10 days from the biopsy) that the tumor would not respond to these drugs.

In data set [2] the test system is tumor MOSs generated from a patient biopsy. Briefly: Drug screen on MOSs from patient biopsy (Example 2). The data set is classed as cell-based, human. Particulars: Example 2 patient biopsy.
Data set [3] deals with PDX19187 bulk organoids and MOSs. The format is cell-based, human. The conditions noted are these: cell viabilities measured after 3 days of treatment. The protocol:
(§2) Organoids were formed from Patient Derived Xenograft cells (including the PDX240 cells described above and a second PDX cell line, PDX19187) and were compared with MOSs formed using the same cells. The organoids were formed using conventional techniques in which a large mass of MATRIGEL in a well or dish was seeded with cells and cultured until growth was confirmed. MOSs were generated from the traditional organoids.
(§3) Both traditional (“bulk”) organoids and the MOSs were then treated with the same drugs (e.g., Oxaliplatin or SN38) and cell viabilities were measured after 3 days of treatment.

The subject of a further data set is traditional cell line. As to the kind of experiment: Traditional (2D) cell line dosed with drug. The conditions noted are these: all dose ranges examined. The data set is classed as cell-based. From the text: As mentioned above, the MOSs and methods of using them to screen for drug compositions may be used to accurately predict the response of a patient tumor to one or more drug therapies. […] For example, in FIG. 22A-22D, the MOSs, but not a cell line, was able to correlate with patient response.

Data set [4] deals with MOSs generated from biopsy material. Briefly: Drug effect screen on MOSs from biopsy material (Example 3). The format is cell-based, human. The conditions noted are these: Example 3 patient biopsy. The protocol:
as §1

Data set [5] relates to tumor. As to the kind of experiment: Actual tumor response of the patient to treatment (Example 2). The format is in vivo, human. Particulars: Example 2 patient, before vs post treatment.
In data set [6] the test system is PDX240 bulk organoids and MOSs. As to the kind of experiment: Drug response of bulk organoids vs MOSs, cell viability, PDX240. The format is cell-based, human. Particulars: cell viabilities measured after 3 days of treatment.
Description: The MOSs may be formed from cell lines grown as part of a Patient Derived Xenograft (PDX). For example, FIGS. 28A-28D illustrate MOSs formed from cultured PDX240 cells. PDX240 cells are a Patient Derived Xenograft (PDX) tumor cell line (numbered 240 based on patient source) that were human tumors grown in immunodeficient mice (PDX) to form in vivo tumors. The xenograft tissue was extracted dissociated, and used to form MOSs as described above. In this example a single cell was included in each MOS as it was formed. […] With progressive time in culture, at least some of the MOSs show the cells dividing and forming structures.
as §2, §3

Data set [7] relates to MOSs derived from a pulmonary tumor biopsy. As to the kind of experiment: IO assay of pulmonary tumor MOSs, Annexin V apoptosis marker. The format is cell-based, human. On the procedure: IO assays of the MOSs for these pulmonary and renal tumor biopsies were prepared with an Annexin V marker to indicate cellular apoptosis. […] If this test were run on, for example, traditional bulk organoids, the results would not be meaningful (due to the lack of patient immune cells) leading to uncertainty in the best course of action for patient treatment,
IO assays of the MOSs for this pulmonary tumor biopsy were prepared with an Annexin V marker to indicate cellular apoptosis. […] If this test were run on, for example, traditional bulk organoids, the results would be less accurate (because ESK1 would not be able to reach its target) leading to uncertainty in the best course of action for patient treatment.
IO assays of the MOSs for this pulmonary tumor biopsy were prepared with an Annexin V marker to indicate cellular apoptosis and Cytolight Red dye to indicate tumor infiltrating lymphocytes (TILs). […] If this test were run on, for example, traditional bulk organoids, the results would be less accurate (due to the inability of PBMC to penetrate the traditional bulk organoids) leading to uncertainty in the best course of action for patient treatment.
This is an indication that TILs can penetrate MOS to kill tumor cells. […]

The test system of data set [8] is MOSs derived from renal tumor biopsies. As to the kind of experiment: IO assay of renal tumor MOSs, Annexin V apoptosis marker. The format is cell-based, human. Particulars: MOSs from renal tumor biopsy. The protocol: IO assays of the MOSs for these pulmonary and renal tumor biopsies were prepared with an Annexin V marker to indicate cellular apoptosis. […] If this test were run on, for example, traditional bulk organoids, the results would not be meaningful (due to the lack of patient immune cells) leading to uncertainty in the best course of action for patient treatment, […]

The subject of data set [9] is MOSs derived from multiple myeloma (MM) bone marrow biopsies. As to the kind of experiment: Multiple myeloma MOS apoptosis assay, Caspase 3/7 green dye, Incucyte imaging. The format is cell-based, human. The conditions noted are these: imaged every 2 hours for 4 days. On the procedure: FIGS. 36A and 36B show the efficacy of Lenalidomide and Bortezoid on MOSs derived from multiple myeloma (MM) bone marrow biopsies. MM MOSs (on day 11) were treated with Lenalidomine (5 uM) or Bortezoid (2 nM). Caspase 3/7 green dye was added in the assay to monitor apoptosis. Incucyte images were taken every 2 hours for 4 days. […] If this test were run on, for example, traditional bulk organoids, the results would not be reliable (due to the lack of patient immune cells) leading to uncertainty in the best course of action for patient treatment.

Entries after “also recorded” stand apart in the source; their conditions may differ. Where two headings read alike, the source gives them in different places.

In the case of `CC(=O)Nc1ccc(O)cc1` [acetaminophen], the “tissue in the MOSs compared with control group” value in the data set with mouse liver MOSs is “smaller and contains many dead cells”. In addition, the “tissue in the treated MOSs compared with control group” value in the data set on human liver MOSs is “significant increase atypical tissue structures (arrows) and debris”.
In the case of `O=C1[O][Pt]2([NH][C@@H]3CCCC[C@H]3[NH]2)[O]C1=O` [Oxaliplatin], the patient response entry with tumor [1] is reported as “no response”. Besides, the “cell survival from the tumor MOSs” value in [2] is recorded as “significant decreases in cell survival”. In addition, in data set [3] (listed as Oxalipalatin), the “drug response curves, bulk organoids compared with MOSs” value is recorded as “comparable response”. Also, the “effect of drug on cell line” value in the data set on traditional cell line is on record as “no effect”. In data set [4], the “percent survival of the MOSs in the presence of the drug” value is on record as “no change”. The “tumor response to treatment” value in the data set on tumor [5] was “responded to treatment”.
`CCc1c2c(nc3ccc(O)cc13)-c1cc3c(c(=O)n1C2)COC(=O)[C@]3(O)CC` [SN38, 7-Ethyl-10-hydroxy-camptothecin]: the “drug response curves, bulk organoids compared with MOSs” value in data set [3] and in [6] was “comparable responses” in each case.
Consider Nivolumab, for which the “response in the form of tumor cell apoptosis (Annexin V marker)” value in [7] and in [8] was “induces apoptosis; also recorded: good response” each time.
`CCc1c2c(nc3ccc(OC(=O)N4CCC(N5CCCCC5)CC4)cc13)-c1cc3c(c(=O)n1C2)COC(=O)[C@]3(O)CC` [Irinotecan]: the patient response entry in the data set on tumor [1] is given as “no response”. Besides, the “percent survival of the MOSs in the presence of the drug” value in data set [4] was “lack of effect”.
In the case of `CC(C)C[C@H](NC(=O)[C@H](Cc1ccccc1)NC(=O)c1cnccn1)B(O)O` [Bortezoid], the “response in the form of tumor cell apoptosis (Caspase 3/7 green dye)” value in [9] (MM MOSs on day 11, 2 nM) was “does not and not”.
As to `Nc1cccc2c1CN(C1CCC(=O)NC1=O)C2=O` (centres unmarked) [Lenalidomide], the “response in the form of tumor cell apoptosis (Caspase 3/7 green dye)” value in [9] (MM MOSs on day 11, 5 uM) is listed as “good response”; in data set [9] (MM MOSs on day 11, 5 uM, listed as Lenalidomine) it was “induces apoptosis”.
